According to paper PMC10716921 (Frontiers in Pharmacology, 2023):
Read-outs that look alike come from different tables or passages of the source. Blank lines part the entries; values can stand above or below the compound they belong to.

Tests used:
[1] = test system: human skin cells, especially keratinocytes; settings: ref Deptuła et al., 2020; cited from earlier work
From the text: (§1) Platelet-derived growth factor BB (PDGF-BB), one of the first growth factors released into the wound, plays a crucial role in the wound healing process. It is responsible for the formation of granulation tissue, production of extracellular matrix (ECM), takes part in the recruitment of mesenchymal stromal cells (MSCs), and stimulates the proliferation of fibroblasts ([White et al., 2021]). In 1997, the FDA approved human recombinant PDGF-BB in sodium carboxy-methylcellulose (NaCMC) hydrogel (Regranex®) for the treatment of DFUs ([Reyes-Martínez et al., 2019]). However, because of the high cos ...

[2] = test system: lymphocytes and basophils; settings: cited from earlier work
From the text: as §1

[3] = test system: mice; settings: applied topically in 18% P407 hydrogel, mice model; ref Deptuła et al., 2020; cited from earlier work
From the text: as §1

[4] = test system: skin cells; settings: cited from earlier work
From the text: Platelet-derived growth factor BB (PDGF-BB), one of the first growth factors released into the wound, plays a crucial role in the wound healing process. It is responsible for the formation of granulation tissue, production of extracellular matrix (ECM), takes part in the recruitment of mesenchymal stromal cells (MSCs), and stimulates the proliferation of fibroblasts ([White et al., 2021]). In 1997, the FDA approved human recombinant PDGF-BB in sodium carboxy-methylcellulose (NaCMC) hydrogel (Regranex®) for the treatment of DFUs ([Reyes-Martínez et al., 2019]). However, because of the high cos ... || During the development of new biomaterials, it is crucial to analyze not only their physicochemical properties and activity but also their biocompatibility and potential risk to human cells and tissues ([Schmalz and […], 2017]). That is why we decided to evaluate the cytotoxicity of RADA-PDGF2 and its effect on immune cells. Based on our experience and literature data, we know that peptides can be cytotoxic to human cells ([Greco et al., 2020]). […] However, RADA- ...

[5] = test system: human neutrophil elastase; assay: human neutrophil elastase enzyme (EC No. 3.4.21.37, Sigma Aldrich, USA) in 25 mM Tris HCl buffer, pH 7.5; settings: 37°C, up to 30 min
[6] = in vivo, iv; cited from earlier work
From the text: as §1

[7] = format: physicochemical
Method: Blood samples provided by healthy volunteers were processed with lithium/heparin tubes to eliminate clots by centrifugation. Plasma aliquots were mixed with RADA-PDGF2 peptide for 24 h at 37°C, using a plasma to peptide volume ratio of (4:1% v/v), to obtain final concentration 2.69 µM of RADA-PDGF2 peptide.). Samples were collected at six time points (0, 1, 2, 3, 6, and 24 h) to assess water and plasma stability. The collected samples were then prepared and analyzed according to the protocol described earlier ([Dzierżyńska et al., 2023]).

[8] = test system: dermal fibroblast, 46BR.1N fibroblast, and HaCaT keratinocytes; format: cell-based, human
Method: Cell viability of dermal fibroblast, 46BR.1N fibroblast, and HaCaT keratinocytes was analyzed after 4 days of cell culture on RADA-PDGF2 hydrogel. RADA-PDGF2 was dissolved in water at a concentration of 1% w/v and placed in the inserts (0.4 µm) located in a 24-well plate. The whole was incubated for at least 1 hour at 37°C to allow gelation. Then, twice the volume of DMEM HG medium was added to the gel and left overnight in the incubator. The cells were trypsinized, centrifuge and then seeded on a gel at 50,000 per insert in DMEM HG medium with 2% FBS and 1% P/S. The medium was changed to DMEM HG with 2% FBS and 1% P/S after 2 days of incubation. After 4 days of incubation to assess viability, cells were stained with Calcein-AM (c = 8 µM) and propidium iodide (2 μg/mL) for 30 min and then analyzed by confocal microscopy with the use of Nikon Eclipse Ti-e Confocal Microscope.

[9] = test system: human peripheral blood mononuclear cells (PBMCs); assay: Immunological analysis: activation of immune cells by flow cytometry; format: cell-based
Method: The analysis of the effect on immune cells in vitro was performed with human peripheral blood mononuclear cells (PBMCs) isolated from “buffy coats” using a Ficoll density gradient (Histopaque, Sigma-Aldrich Co.). The procedure was approved by the Independent Bioethics Commission for Research of the Medical University of Gdańsk (NKBBN/387/2014). 100 ul of 1% RADA-PDGF2 was placed in a 24-well plate. Then, culture inserts with a pore diameter of 0.4 μm were placed in the wells, and cells were seeded into them in the amount of 0.5 million cells/0.5 mL RPMI 1640 (P/S, 10% FBS)/well. This was then supplemented with medium alone to a final volume of 1 mL/well. Cells were incubated in standard conditions for 24 h. The negative control was unstimulated cells, grown in the insert, in a well without gels. RADA16-I constituted an additional control. After the incubation, cells were harvested, washed in PBS, counted, and prepared for cytometric analysis. 100,000 cells/100 µL were stained with fluorochrome-conjugated monoclonal antibodies (anti-CD3, anti-CD4, anti-CD8, anti-CD16, anti-CD56, anti-CD25, anti-CD69, anti-CD71, anti-HLA-DR, anti-CD11c, anti-CD80, and anti-CD83). Following 30 min of incubation at room temperature (RT) in the dark, the cells were analyzed using a flow cytometer (LSRFortessa, BD).

[10] = previous stability studies; ref Dzierżyńska et al., 2023; cited from earlier work

cleaved bond [5]: V23-G24, major
Compound: Ac-(RADA)4GGGAAPVGGGRLIDRTNANFL-NH2

time over which the peptide exhibited chemical stability in aqueous solution [7]: 24 h
CD11c+CD83+ active DCs population compared to untreated control [9]: statistically significant increase
NK cells: expression of CD25 [9]: slight increase
NK cells: expression of CD71 [9]: reduction
NK cells: statistical significance of change in activation markers [9]: no statistical significance was noted
overall immunological assessment [9]: safe in an immunological context
Compound: CC[C@H](C)[C@H](NC(=O)[C@H](CC(C)C)NC(=O)[C@H](CCCNC(=N)N)NC(=O)CNC(=O)CNC(=O)CNC(=O)[C@@H](NC(=O)[C@@H]1CCCN1C(=O)[C@H](C)NC(=O)[C@H](C)NC(=O)CNC(=O)CNC(=O)CNC(=O)[C@H](C)NC(=O)[C@H](CC(=O)O)NC(=O)[C@H](C)NC(=O)[C@H](CCCNC(=N)N)NC(=O)[C@H](C)NC(=O)[C@H](CC(=O)O)NC(=O)[C@H](C)NC(=O)[C@H](CCCNC(=N)N)NC(=O)[C@H](C)NC(=O)[C@H](CC(=O)O)NC(=O)[C@H](C)NC(=O)[C@H](CCCNC(=N)N)NC(=O)[C@H](C)NC(=O)[C@H](CC(=O)O)NC(=O)[C@H](C)NC(=O)[C@H](CCCNC(=N)N)NC(C)=O)C(C)C)C(=O)N[C@@H](CC(=O)O)C(=O)N[C@@H](CCCNC(=N)N)C(=O)N[C@H](C(=O)N[C@@H](CC(N)=O)C(=O)N[C@@H](C)C(=O)N[C@@H](CC(N)=O)C(=O)N[C@@H](Cc1ccccc1)C(=O)N[C@@H](CC(C)C)C(N)=O)[C@@H](C)O [RADA-PDGF2]
skin cell viability on hydrogel [8]: remained viable
Th cells: expression of activation markers versus unstimulated cells [9]: any statistically significant differences between unstimulated cells and cells stimulated with RADA-PDGF2 were not observed
cytotoxic lymphocytes (CTL): expression of CD69 marker [9]: increased expression

overall immunological assessment ([9]; PBMCs, 24 h, due to the low values of the changes): safe in an immunological context
Compound: CC(=O)N[C@@H](CCCNC(=N)N)C(=O)N[C@@H](C)C(=O)N[C@@H](CC(=O)O)C(=O)N[C@@H](C)C(=O)N[C@@H](CCCNC(=N)N)C(=O)N[C@@H](C)C(=O)N[C@@H](CC(=O)O)C(=O)N[C@@H](C)C(=O)N[C@@H](CCCNC(=N)N)C(=O)N[C@@H](C)C(=O)N[C@@H](CC(=O)O)C(=O)N[C@@H](C)C(=O)N[C@@H](CCCNC(=N)N)C(=O)N[C@@H](C)C(=O)N[C@@H](CC(=O)O)C(=O)N[C@@H](C)C(N)=O [RADA16-I, reference compound]
presence of peptide in plasma [10]: did not show prolonged presence of peptide in plasma

Further lines, the compound ahead of its results:

Compound: RLIDRTNANFL [PDGF2, peptide … derived from PDGF-BB]
pro-proliferative properties [1]: strong pro-proliferative properties
immunogenicity in vitro [2]: negligible lymphocyte and basophil activation
effect on wound healing [3]: accelerates wound healing
cytotoxicity [4]: minimal cytotoxicity

Compound: PDGF-BB: Platelet-derived growth factor BB
half-life [6]: a few minutes
